Assay results as given in patent US20260007613A1, “LONG-ACTING LOW-TOXICITY NOVEL CATIONIC LIPID COMPOUNDS AND COMPOSITION THEREOF” (BEIJING YOUCAREKECHUANG PHARMACEUTICAL TECHNOLOGY CO., LTD., priority 2023, published 2026).
Values joined by “and” are separate entries in the source; they are usually repeats but may differ in a detail not shown here. Equal values may be shown once.

How the values were obtained:
female BALB/C mice = test: Live imaging in mice: protein expression of Fluc-mRNA delivered by LNP formulations; assay type: in vivo; settings: for average radiation intensity, times that of ALC-0315: comparator ALC-0315; for average radiation intensity, times that of HHMA: comparator HHMA; for average radiation intensity, times that of SM-102: comparator SM-102; for expression of mRNA in mice, times that of YK-302: comparator YK-302; for expression amount, times that of YK-309: comparator YK-309; for expression amount, times that of YK-313: comparator YK-313; for expression amount, times that of YK-321: comparator YK-321; for average radiation intensity, times that of compound 21: comparator compound 21; for average radiation intensity, times that of compound 23: comparator compound 23
Method in brief: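 Female BALB/C mice (4-6 weeks, 17-19 g) received LNP-formulated Fluc-mRNA […] intramuscularly. At 6 h, 24 h, 48 h and 7 d, luciferase substrate given intraperitoneally, and after 5 min average radiance measured by IVIS whole-body imaging.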

293T cells [1] = test: Fluorescent detection of Fluc-mRNA (cell transfection efficiency of LNP formulations); assay type: cell-based
Method in brief: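 293T cells were seeded at 10,000/well and cultured overnight, then given LNP carrying […] Fluc-mRNA (cationic:neutral:structured:polymer-conjugated lipid 49:10:39.5:1.5 molar) for 24 h. Luminescence was developed with […] and imaged on IVIS.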

[2] = Particle size and polydispersity index (PDI) of lipid nanoparticles by dynamic light scattering; assay type: physicochemical; settings: LNP formulation prepared from the cationic lipid, 25° C.
Description: The particle size and polydispersity index (PDI) were determined by dynamic light scattering using Malvern laser particle size analyzer.
10 μL of the liposome solution was weighed, diluted to 1 mL with RNase-free deionized water, and added to the sample pool. Each sample was measured in triplicate. The measurement conditions were: […] scattering angle, and 25° C.

liver = test: Distribution of liposomes in mice: protein expression in the liver (live imaging); assay type: in vivo; settings: at 6 h, intramuscular injection
Method in brief: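 Female BALB/C mice (4–6 weeks, 17–19 g) received LNP carrying […] Fluc-mRNA intramuscularly. At 6 h, 24 h, 48 h and 7 d, the luciferase substrate was given intraperitoneally. After 5 min of free movement, average radiance was imaged with IVIS Spectrum.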

293T cells [3] = test: Cell survival rate determination (CCK-8); assay type: cell-based
Method in brief: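 293T cells plated at 10,000/well (96-well), adhered overnight, then exposed 24 h to Fluc-mRNA LNP (cationic:neutral:structured:PEG-lipid 49:10:39.5:1.5) or Lipofectamine 3000. Viability by CCK-8, 1 h incubation, absorbance at 450 nm.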

CCCCCCCCCCCOC(=O)CCCCCN(CCCC(=O)OCCCC(CCCCCCCCCC)CCCCCCCCCC)C[C@H](O)CN(CC)CCO [YK-310]
average radiation intensity, times that of ALC-0315 (female BALB/C mice; 6 h): 10.56 times
average radiation intensity, times that of HHMA (female BALB/C mice; 6 h): 14.02 times
average radiation intensity, times that of SM-102 (female BALB/C mice; 6 h): 13.01 times
expression of mRNA in mice, times that of YK-302 (female BALB/C mice; 6 h): 625.87 times
expression amount, times that of YK-309 (female BALB/C mice; 6 h): 138.93 times
expression amount, times that of YK-313 (female BALB/C mice; 6 h): 20.64 times
expression amount, times that of YK-321 (female BALB/C mice; 6 h): 17.70 times
average radiation intensity, times that of compound 21 (female BALB/C mice; 6 h): 14.95 times
average radiation intensity, times that of compound 23 (female BALB/C mice; 6 h): 15.48 times
average radiation intensity (female BALB/C mice; 6 h after intramuscular injection): 9125240
average radiation intensity, times that of ALC-0315 (female BALB/C mice; 24 h): 15.50 times
average radiation intensity, times that of HHMA (female BALB/C mice; 24 h): 24.61 times
average radiation intensity, times that of SM-102 (female BALB/C mice; 24 h): 24.51 times
expression of mRNA in mice, times that of YK-302 (female BALB/C mice; 24 h): 746.29 times
expression amount, times that of YK-309 (female BALB/C mice; 24 h): 175.52 times
expression amount, times that of YK-313 (female BALB/C mice; 24 h): 28.27 times
expression amount, times that of YK-321 (female BALB/C mice; 24 h): 29.16 times and ~29 times
average radiation intensity, times that of compound 21 (female BALB/C mice; 24 h): 26.88 times
average radiation intensity, times that of compound 23 (female BALB/C mice; 24 h): 28.24 times
average radiation intensity (female BALB/C mice; 24 h after intramuscular injection): 2952310
average radiation intensity, times that of ALC-0315 (female BALB/C mice; 48 h): 24.64 times
average radiation intensity, times that of HHMA (female BALB/C mice; 48 h): 30.13 times
average radiation intensity, times that of SM-102 (female BALB/C mice; 48 h): 30.14 times
expression of mRNA in mice, times that of YK-302 (female BALB/C mice; 48 h): 957.07 times
expression amount, times that of YK-309 (female BALB/C mice; 48 h): 149.75 times
expression amount, times that of YK-313 (female BALB/C mice; 48 h): 38.38 times
expression amount, times that of YK-321 (female BALB/C mice; 48 h): 26.83 times
average radiation intensity, times that of compound 21 (female BALB/C mice; 48 h): 31.67 times
average radiation intensity, times that of compound 23 (female BALB/C mice; 48 h): 29.62 times
average radiation intensity (female BALB/C mice; 48 h after intramuscular injection): 981000
average radiation intensity, times that of ALC-0315 (female BALB/C mice; 7 d): 16.67 times
average radiation intensity, times that of HHMA (female BALB/C mice; 7 d): 20.01 times
average radiation intensity, times that of SM-102 (female BALB/C mice; 7 d): 17.74 times
expression of mRNA in mice, times that of YK-302 (female BALB/C mice; 7 d): 305.89 times
expression amount, times that of YK-309 (female BALB/C mice; 7 d): 93.52 times
expression amount, times that of YK-313 (female BALB/C mice; 7 d): 36.31 times
expression amount, times that of YK-321 (female BALB/C mice; 7 d): 17.84 times and ~17 times
average radiation intensity, times that of compound 21 (female BALB/C mice; 7 d): 18.23 times
average radiation intensity, times that of compound 23 (female BALB/C mice; 7 d): 18.82 times
average radiation intensity (female BALB/C mice; 7 d after intramuscular injection): 117462
Relative light unit (RLU) (293T cells [1]; LNP formulation of Fluc-mRNA, 96-well plate, 24 hours): 25797040 RLU
Multiples (YK-305) (293T cells [1]; RLU of YK-305 / RLU of the lipid of the line): 1.06
Multiples (YK-310) (293T cells [1]; RLU of YK-310 / RLU of the lipid of the line): 1.00
Multiples (YK-312) (293T cells [1]; RLU of YK-312 / RLU of the lipid of the line): 0.78
Multiples (YK-318) (293T cells [1]; RLU of YK-318 / RLU of the lipid of the line, Tables 5, 7, 11): 0.43
Multiples (YK-319) (293T cells [1]; RLU of YK-319 / RLU of the lipid of the line, Tables 5, 7, 11): 0.95
Ratio relative to SM-102 (293T cells [1]; RLU of the lipid / RLU of SM-102, times that of SM-102): 16.08
cell transfection efficiency, times that of ALC-0315 (293T cells [1]; comparator ALC-0315): 12.69 times
cell transfection efficiency, times that of HHMA (293T cells [1]; comparator HHMA): 12.86 times
cell transfection efficiency, times that of Lipofectamine 3000 (293T cells [1]; comparator Lipofectamine 3000): 21.76 times
cell transfection efficiency, times that of YK-009 (293T cells [1]; comparator YK-009): 5.04 times
cell transfection efficiency, times that of YK-301 (293T cells [1]; comparator YK-301): 30.62 times
cell transfection efficiency, times that of YK-302 (293T cells [1]; comparator YK-302): 928.69 times
cell transfection efficiency, times that of YK-303 (293T cells [1]; comparator YK-303): 41.19 times
cell transfection efficiency, times that of YK-304 (293T cells [1]; comparator YK-304): ~1200 times and 1247.08 times
cell transfection efficiency, times that of YK-306 (293T cells [1]; comparator YK-306): 11.74 times
cell transfection efficiency, times that of YK-307 (293T cells [1]; comparator YK-307): 5.66 times
cell transfection efficiency, times that of YK-308 (293T cells [1]; comparator YK-308): 5.12 times
cell transfection efficiency, times that of YK-309 (293T cells [1]; comparator YK-309): ~200 times and 205.77 times
cell transfection efficiency, times that of YK-311 (293T cells [1]; comparator YK-311): 13.14 times
cell transfection efficiency, times that of YK-313 (293T cells [1]; comparator YK-313): 29.77 times
cell transfection efficiency, times that of YK-314 (293T cells [1]; comparator YK-314): 47.12 times
cell transfection efficiency, times that of YK-315 (293T cells [1]; comparator YK-315): 16.25 times
cell transfection efficiency, times that of YK-316 (293T cells [1]; comparator YK-316): 5.36 times
cell transfection efficiency, times that of YK-317 (293T cells [1]; comparator YK-317): 7.16 times
cell transfection efficiency, times that of YK-320 (293T cells [1]; comparator YK-320): 9.54 times
cell transfection efficiency, times that of YK-321 (293T cells [1]; comparator YK-321): 18.38 times
cell transfection efficiency, times that of compound 21 (293T cells [1]; comparator compound 21): 18.01 times
cell transfection efficiency, times that of compound 23 (293T cells [1]; comparator compound 23): 19.02 times
PDI (%) [2]: 12.4%
Particle size (nm) [2]: 192 nm
protein expression in the liver (liver): no protein expression in the liver
Cell survival rate (%) (293T cells [3]; LNP formulation of Fluc-mRNA, 24 hours, CCK-8): 82.10%
cell survival rate higher than ALC-0315 (293T cells [3]; difference of survival rates, comparator ALC-0315): 31.07% and ~30%
cell survival rate higher than HHMA (293T cells [3]; difference of survival rates, comparator HHMA): 15.63% and ~15%
cell survival rate higher than Lipofectamine 3000 (293T cells [3]; difference of survival rates, comparator Lipofectamine 3000): 57.09%
cell survival rate higher than SM-102 (293T cells [3]; difference of survival rates, comparator SM-102): 12.65% and ~12%
cell survival rate higher than YK-301 (293T cells [3]; difference of survival rates, comparator YK-301): 29.14%
cell survival rate higher than YK-302 (293T cells [3]; difference of survival rates, comparator YK-302): 65.67% and ~65% and ~50%
cell survival rate higher than YK-303 (293T cells [3]; difference of survival rates, comparator YK-303): 18.78%
cell survival rate higher than YK-304 (293T cells [3]; difference of survival rates, comparator YK-304): 47.94%
cell survival rate higher than YK-306 (293T cells [3]; difference of survival rates, comparator YK-306): 39.91%
cell survival rate higher than YK-307 (293T cells [3]; difference of survival rates, comparator YK-307): 20.96%
cell survival rate higher than YK-308 (293T cells [3]; difference of survival rates, comparator YK-308): 11.11%
cell survival rate higher than YK-309 (293T cells [3]; difference of survival rates, comparator YK-309): 50.49%
cell survival rate higher than YK-311 (293T cells [3]; difference of survival rates, comparator YK-311): 12.04%
cell survival rate higher than YK-313 (293T cells [3]; difference of survival rates, comparator YK-313): 13.17%
cell survival rate higher than YK-314 (293T cells [3]; difference of survival rates, comparator YK-314): 14.22%
cell survival rate higher than YK-315 (293T cells [3]; difference of survival rates, comparator YK-315): 10.82%
cell survival rate higher than YK-316 (293T cells [3]; difference of survival rates, comparator YK-316): 11.57%
cell survival rate higher than YK-317 (293T cells [3]; difference of survival rates, comparator YK-317): 22.92% and ~20%
cell survival rate higher than YK-320 (293T cells [3]; difference of survival rates, comparator YK-320): 11.03%
cell survival rate higher than YK-321 (293T cells [3]; difference of survival rates, comparator YK-321): 9.76%
cell survival rate higher than compound 21 (293T cells [3]; difference of survival rates, comparator compound 21): 11.89%
cell survival rate higher than compound 23 (293T cells [3]; difference of survival rates, comparator compound 23): 10.60%
